According to patent EP4745135A1 (Gluetacs Therapeutics (Shanghai) Co., Ltd., priority 2023, dated 2025):

Experiments:
CK1α = target: T1, CK1α (Homo sapiens, UniProt P48729+Q96SW2); assay: Western blot, degradation of substrate protein in hPBMCs; type: cell-based; details: Western blot, 24 hours of compound treatment, compounds tested at 50 nM and 500 nM (concentration for the table not stated)
T1 construct: effects of the compounds of the present disclosure on the expression of target proteins in cells; endogenous in cells; host or cells: human PBMCs (Milecell Biotechnologies)
T1 sequence (P48729 whole entry): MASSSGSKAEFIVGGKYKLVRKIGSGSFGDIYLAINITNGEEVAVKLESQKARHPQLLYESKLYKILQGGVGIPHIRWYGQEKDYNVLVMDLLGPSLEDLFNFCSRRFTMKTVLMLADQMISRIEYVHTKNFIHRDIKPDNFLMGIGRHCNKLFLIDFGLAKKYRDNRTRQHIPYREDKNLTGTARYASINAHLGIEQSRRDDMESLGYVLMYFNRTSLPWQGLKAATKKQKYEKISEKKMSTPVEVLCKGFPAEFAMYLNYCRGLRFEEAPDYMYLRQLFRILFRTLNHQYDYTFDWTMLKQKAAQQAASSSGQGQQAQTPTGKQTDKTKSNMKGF
T1 sequence (Q96SW2 whole entry): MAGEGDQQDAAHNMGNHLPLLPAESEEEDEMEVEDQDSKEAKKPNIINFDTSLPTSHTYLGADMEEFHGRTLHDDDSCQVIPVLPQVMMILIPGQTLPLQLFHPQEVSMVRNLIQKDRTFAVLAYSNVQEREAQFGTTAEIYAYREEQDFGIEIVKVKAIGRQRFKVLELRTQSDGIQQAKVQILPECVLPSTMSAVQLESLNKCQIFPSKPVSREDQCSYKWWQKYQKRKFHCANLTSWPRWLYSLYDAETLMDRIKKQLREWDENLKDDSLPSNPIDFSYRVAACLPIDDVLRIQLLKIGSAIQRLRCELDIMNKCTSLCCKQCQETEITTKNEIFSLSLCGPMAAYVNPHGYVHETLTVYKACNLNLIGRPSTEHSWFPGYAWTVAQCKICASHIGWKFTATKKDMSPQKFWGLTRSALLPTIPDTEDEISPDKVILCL
T1 sequence (Q16531 whole entry partner): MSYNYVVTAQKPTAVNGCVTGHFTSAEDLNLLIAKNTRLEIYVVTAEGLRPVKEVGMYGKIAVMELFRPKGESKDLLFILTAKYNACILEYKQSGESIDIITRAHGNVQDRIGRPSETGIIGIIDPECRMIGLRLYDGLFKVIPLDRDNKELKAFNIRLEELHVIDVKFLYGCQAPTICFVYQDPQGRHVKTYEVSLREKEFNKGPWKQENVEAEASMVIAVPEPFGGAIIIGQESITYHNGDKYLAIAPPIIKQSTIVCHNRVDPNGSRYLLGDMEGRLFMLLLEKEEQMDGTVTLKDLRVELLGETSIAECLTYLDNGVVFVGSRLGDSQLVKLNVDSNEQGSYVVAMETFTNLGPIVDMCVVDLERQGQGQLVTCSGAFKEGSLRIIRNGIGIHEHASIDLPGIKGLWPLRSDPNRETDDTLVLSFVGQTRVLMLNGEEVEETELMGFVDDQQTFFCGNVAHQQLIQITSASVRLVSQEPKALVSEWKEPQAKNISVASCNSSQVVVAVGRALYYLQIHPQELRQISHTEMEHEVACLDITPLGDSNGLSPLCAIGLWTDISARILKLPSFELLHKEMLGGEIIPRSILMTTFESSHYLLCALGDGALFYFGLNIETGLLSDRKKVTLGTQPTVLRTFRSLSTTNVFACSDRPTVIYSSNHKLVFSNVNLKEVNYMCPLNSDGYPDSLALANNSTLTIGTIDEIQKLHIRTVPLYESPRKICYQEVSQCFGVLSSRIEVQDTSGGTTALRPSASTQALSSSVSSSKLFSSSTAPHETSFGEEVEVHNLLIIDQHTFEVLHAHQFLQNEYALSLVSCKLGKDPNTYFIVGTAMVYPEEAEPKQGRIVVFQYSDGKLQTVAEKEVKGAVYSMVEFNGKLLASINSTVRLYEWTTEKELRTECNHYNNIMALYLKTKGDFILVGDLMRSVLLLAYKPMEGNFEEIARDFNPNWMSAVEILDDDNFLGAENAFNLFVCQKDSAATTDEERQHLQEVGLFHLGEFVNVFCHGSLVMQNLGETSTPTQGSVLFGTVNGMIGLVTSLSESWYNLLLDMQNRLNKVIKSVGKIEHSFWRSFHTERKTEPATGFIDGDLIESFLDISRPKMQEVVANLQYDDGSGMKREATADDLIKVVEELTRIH

IKZF1 = target: T2, IKZF1 (Homo sapiens, UniProt Q13422+Q96SW2); assay: as above; type: cell-based; details: Western blot, 24 hours of compound treatment, compounds tested at 50 nM and 500 nM (concentration for the table not stated)
T2 construct: effects of the compounds of the present disclosure on the expression of target proteins in cells; endogenous in cells; host or cells: human PBMCs (Milecell Biotechnologies)
T2 sequence (Q13422 whole entry): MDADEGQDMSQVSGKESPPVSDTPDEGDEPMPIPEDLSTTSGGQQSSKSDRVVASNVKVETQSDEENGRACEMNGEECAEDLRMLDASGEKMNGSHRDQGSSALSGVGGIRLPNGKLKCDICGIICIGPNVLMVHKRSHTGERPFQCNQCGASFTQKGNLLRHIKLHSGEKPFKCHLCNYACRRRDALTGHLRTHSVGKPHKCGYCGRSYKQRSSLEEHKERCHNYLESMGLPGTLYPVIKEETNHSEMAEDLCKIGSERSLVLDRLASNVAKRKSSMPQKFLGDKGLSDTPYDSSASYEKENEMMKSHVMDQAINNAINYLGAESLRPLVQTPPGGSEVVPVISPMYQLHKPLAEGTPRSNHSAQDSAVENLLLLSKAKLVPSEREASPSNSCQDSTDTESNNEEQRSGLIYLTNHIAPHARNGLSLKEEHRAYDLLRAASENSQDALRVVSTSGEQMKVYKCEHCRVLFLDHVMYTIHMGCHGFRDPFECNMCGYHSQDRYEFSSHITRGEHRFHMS
T2 sequence (Q96SW2 whole entry): as the sequence (Q96SW2 whole entry) above
T2 sequence (Q16531 whole entry partner): as the sequence (Q16531 whole entry partner) above

IKZF2 = target: T3, IKZF2 (Homo sapiens, UniProt Q96SW2+Q9UKS7); assay: as above; type: cell-based; details: Western blot, 24 hours of compound treatment, compounds tested at 50 nM and 500 nM (concentration for the table not stated)
T3 construct: effects of the compounds of the present disclosure on the expression of target proteins in cells; endogenous in cells; host or cells: human PBMCs (Milecell Biotechnologies)
T3 sequence (Q9UKS7 whole entry): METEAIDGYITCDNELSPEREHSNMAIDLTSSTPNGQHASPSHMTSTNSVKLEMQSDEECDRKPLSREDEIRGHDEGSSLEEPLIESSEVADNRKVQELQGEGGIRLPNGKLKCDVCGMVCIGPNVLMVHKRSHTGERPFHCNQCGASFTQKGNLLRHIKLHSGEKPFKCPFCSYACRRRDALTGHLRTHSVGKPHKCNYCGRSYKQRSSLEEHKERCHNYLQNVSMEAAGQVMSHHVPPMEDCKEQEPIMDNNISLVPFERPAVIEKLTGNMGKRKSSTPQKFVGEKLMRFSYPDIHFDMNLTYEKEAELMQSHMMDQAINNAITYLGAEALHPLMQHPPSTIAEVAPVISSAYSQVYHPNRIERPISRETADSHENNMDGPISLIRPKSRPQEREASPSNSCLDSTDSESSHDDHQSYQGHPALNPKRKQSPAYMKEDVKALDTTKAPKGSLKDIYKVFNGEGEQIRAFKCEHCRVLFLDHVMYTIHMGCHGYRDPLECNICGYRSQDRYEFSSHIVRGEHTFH
T3 sequence (Q96SW2 whole entry): as the sequence (Q96SW2 whole entry) above
T3 sequence (Q16531 whole entry partner): as the sequence (Q16531 whole entry partner) above

IKZF3 = target: T4, IKZF3 (Homo sapiens, UniProt Q96SW2+Q9UKT9); assay: as above; type: cell-based; details: Western blot, 24 hours of compound treatment, compounds tested at 50 nM and 500 nM (concentration for the table not stated)
T4 construct: effects of the compounds of the present disclosure on the expression of target proteins in cells; endogenous in cells; host or cells: human PBMCs (Milecell Biotechnologies)
T4 sequence (Q9UKT9 whole entry): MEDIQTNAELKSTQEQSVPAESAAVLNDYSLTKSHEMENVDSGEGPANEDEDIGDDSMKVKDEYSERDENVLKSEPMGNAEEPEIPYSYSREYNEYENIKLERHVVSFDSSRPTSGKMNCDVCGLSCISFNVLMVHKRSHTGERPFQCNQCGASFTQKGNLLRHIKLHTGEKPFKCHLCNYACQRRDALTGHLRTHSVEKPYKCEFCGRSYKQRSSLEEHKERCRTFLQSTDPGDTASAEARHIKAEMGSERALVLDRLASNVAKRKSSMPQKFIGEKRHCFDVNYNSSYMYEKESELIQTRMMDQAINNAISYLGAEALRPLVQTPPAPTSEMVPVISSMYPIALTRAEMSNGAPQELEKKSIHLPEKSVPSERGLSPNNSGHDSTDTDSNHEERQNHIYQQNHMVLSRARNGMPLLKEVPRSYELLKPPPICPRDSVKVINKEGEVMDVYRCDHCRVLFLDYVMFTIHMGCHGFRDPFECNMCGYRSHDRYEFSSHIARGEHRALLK
T4 sequence (Q96SW2 whole entry): as the sequence (Q96SW2 whole entry) above
T4 sequence (Q16531 whole entry partner): as the sequence (Q16531 whole entry partner) above

WEE1 = target: T5, WEE1 (Homo sapiens, UniProt P30291+Q96SW2); assay: as above; type: cell-based; details: Western blot, 24 hours of compound treatment, compounds tested at 50 nM and 500 nM (concentration for the table not stated)
T5 construct: effects of the compounds of the present disclosure on the expression of target proteins in cells; endogenous in cells; host or cells: human PBMCs (Milecell Biotechnologies)
T5 sequence (P30291 whole entry): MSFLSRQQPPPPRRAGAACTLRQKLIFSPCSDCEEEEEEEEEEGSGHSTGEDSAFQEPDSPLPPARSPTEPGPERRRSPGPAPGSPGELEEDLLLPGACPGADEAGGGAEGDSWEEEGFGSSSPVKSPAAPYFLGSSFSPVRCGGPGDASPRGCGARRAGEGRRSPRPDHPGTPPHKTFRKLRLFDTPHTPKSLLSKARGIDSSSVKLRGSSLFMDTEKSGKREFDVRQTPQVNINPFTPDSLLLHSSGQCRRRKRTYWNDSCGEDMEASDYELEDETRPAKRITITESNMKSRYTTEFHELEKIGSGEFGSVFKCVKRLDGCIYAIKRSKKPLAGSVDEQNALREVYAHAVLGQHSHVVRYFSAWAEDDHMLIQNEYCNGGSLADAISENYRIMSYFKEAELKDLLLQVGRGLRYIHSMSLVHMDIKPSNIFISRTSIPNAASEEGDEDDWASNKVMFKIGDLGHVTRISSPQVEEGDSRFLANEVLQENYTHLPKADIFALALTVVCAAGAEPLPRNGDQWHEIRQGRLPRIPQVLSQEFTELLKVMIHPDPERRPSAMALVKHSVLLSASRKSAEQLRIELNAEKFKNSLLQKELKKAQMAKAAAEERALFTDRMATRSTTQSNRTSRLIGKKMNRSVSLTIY
T5 sequence (Q96SW2 whole entry): as the sequence (Q96SW2 whole entry) above
T5 sequence (Q16531 whole entry partner): as the sequence (Q16531 whole entry partner) above

GSPT1 = assay: as above; type: cell-based, Human; details: Western blot, 24 hours of compound treatment, compounds tested at 50 nM and 500 nM (concentration for the table not stated)
[1] = target: T6, human Cereblon WT GST-tagged protein (Homo sapiens, UniProt Q96SW2); assay: CRBN-binding affinity, HTRF (CEREBLON BINDING kit); details: for inhibition at 0.5 µM: read-out: Inhibition Rate at 0.5 µM (%); for inhibition at 2 µM: read-out: Inhibition Rate at 2 µM (%)
T6 construct: purchased CISBIO 64BDCRBNPEH
T6 sequence (Q96SW2 whole entry): as the sequence (Q96SW2 whole entry) above

| inhibition at 0.5 µM [1] [%] | inhibition at 2 µM [1] [%] | Compound | CK1α substrate protein remaining % (CK1α) | IKZF 1 substrate protein remaining % (IKZF1) | IKZF2 substrate protein remaining % (IKZF2) | IKZF3 substrate protein remaining % (IKZF3) | Wee1 substrate protein remaining % (WEE1) | GSPT1 substrate protein remaining % (GSPT1) |
| --- | --- | --- | --- | --- | --- | --- | --- | --- |
| 60 to 80 | 80 to 100 | O=C1CCC(N2Cc3c(CN4CC=C(c5cccc6cnccc56)CC4)cccc3C2=S)C(=O)N1 (stereo not drawn) [GT-08634, 3-(4-((4-(isoquinolin-5-yl)-3,6-dihydropyridin-1(2H)-yl)methyl)-1-thioxoisoindolin-2-yl)piperidine-2,6-dione] | B (80%< substrate protein remaining %≤ 100%) | B (80%< substrate protein remaining %≤ 100%) | B (80%< substrate protein remaining %≤ 100%) | B (80%< substrate protein remaining %≤ 100%) | A (0% ≤ substrate protein remaining % ≤ 80%) | B (80%< substrate protein remaining %≤ 100%) |
| 80 to 100 | 80 to 100 | O=C1CCC(N2Cc3c(CN4CC(N5CCc6cc(F)ccc65)C4)cccc3C2=S)C(=O)N1 (stereo not drawn) [GT-08635, 3-(4-((3-(5-fluoroindolin-1-yl)azetidin-1-yl)methyl)-1-thioxoisoindolin-2-yl)piperidine-2,6-dione] | B (80%< substrate protein remaining %≤ 100%) | B (80%< substrate protein remaining %≤ 100%) | B (80%< substrate protein remaining %≤ 100%) | B (80%< substrate protein remaining %≤ 100%) | A (0% ≤ substrate protein remaining % ≤ 80%) | B (80%< substrate protein remaining %≤ 100%) |
| 60 to 80 | 80 to 100 | O=C1CCC(N2Cc3c(CN4CCN(c5ccccn5)CC4)cccc3C2=S)C(=O)N1 (stereo not drawn) [GT-08691, 3-(4-((4-(pyridin-2-yl)piperazin-1-yl)methyl)-1-thioxoisoindolin-2-yl)piperidine-2,6-dione] | B (80%< substrate protein remaining %≤ 100%) | B (80%< substrate protein remaining %≤ 100%) | B (80%< substrate protein remaining %≤ 100%) | B (80%< substrate protein remaining %≤ 100%) | A (0% ≤ substrate protein remaining % ≤ 80%) | B (80%< substrate protein remaining %≤ 100%) |
| 53 to 60 | 80 to 100 | Cc1cccc(N2CCN(Cc3cccc4c3CN(C3CCC(=O)NC3=O)C4=S)CC2)n1 (stereo not drawn) [GT-08692, 3-(4-((4-(6-methylpyridin-2-yl)piperazin-1-yl)methyl)-1-thioxoisoindolin-2-yl)piperidine-2,6-dione] | B (80%< substrate protein remaining %≤ 100%) | B (80%< substrate protein remaining %≤ 100%) | B (80%< substrate protein remaining %≤ 100%) | B (80%< substrate protein remaining %≤ 100%) | A (0% ≤ substrate protein remaining % ≤ 80%) | B (80%< substrate protein remaining %≤ 100%) |

Further lines, the compound ahead of its results:

| Compound | inhibition at 0.5 µM [1] [%] | inhibition at 2 µM [1] [%] | CK1α substrate protein remaining % (CK1α) | IKZF 1 substrate protein remaining % (IKZF1) | IKZF2 substrate protein remaining % (IKZF2) | IKZF3 substrate protein remaining % (IKZF3) | Wee1 substrate protein remaining % (WEE1) | GSPT1 substrate protein remaining % (GSPT1) |
| --- | --- | --- | --- | --- | --- | --- | --- | --- |
| O=C1CCC(N2Cc3cc(CN4CCN(c5cc(F)ccc5F)CC4)ccc3C2=S)C(=O)N1 (stereo not drawn) [GT-08625, 3-(5-((4-(2,5-difluorophenyl)piperazin-1-yl)methyl)-1-thioxoisoindolin-2-yl)piperidine-2,6-dione] | 60 to 80 | 80 to 100 | A (0% ≤ substrate protein remaining % ≤ 80%) | B (80%< substrate protein remaining %≤ 100%) | B (80%< substrate protein remaining %≤ 100%) | B (80%< substrate protein remaining %≤ 100%) | B (80%< substrate protein remaining %≤ 100%) | A (0% ≤ substrate protein remaining % ≤ 80%) |
| O=C1CCC(N2Cc3cc(CN4CCN(c5c(F)cccc5F)CC4)ccc3C2=S)C(=O)N1 (stereo not drawn) [GT-08626, 3-(5-((4-(2,6-difluorophenyl)piperazin-1-yl)methyl)-1-thioxoisoindolin-2-yl)piperidine-2,6-dione] | 60 to 80 | 80 to 100 | B (80%< substrate protein remaining %≤ 100%) | B (80%< substrate protein remaining %≤ 100%) | B (80%< substrate protein remaining %≤ 100%) | B (80%< substrate protein remaining %≤ 100%) | B (80%< substrate protein remaining %≤ 100%) | A (0% ≤ substrate protein remaining % ≤ 80%) |
| O=C1CCC(N2Cc3cc(CN4CCN(c5ccc(F)c(F)c5)CC4)ccc3C2=S)C(=O)N1 (stereo not drawn) [GT-08627, 3-(5-((4-(3,4-difluorophenyl)piperazin-1-yl)methyl)-1-thioxoisoindolin-2-yl)piperidine-2,6-dione] | 60 to 80 | 80 to 100 | B (80%< substrate protein remaining %≤ 100%) | B (80%< substrate protein remaining %≤ 100%) | B (80%< substrate protein remaining %≤ 100%) | B (80%< substrate protein remaining %≤ 100%) | B (80%< substrate protein remaining %≤ 100%) | A (0% ≤ substrate protein remaining % ≤ 80%) |
| O=C1CCC(N2Cc3cc(CN4CCN(c5cc(F)cc(F)c5)CC4)ccc3C2=S)C(=O)N1 (stereo not drawn) [GT-08628, 3-(5-((4-(3,5-difluorophenyl)piperazin-1-yl)methyl)-1-thioxoisoindolin-2-yl)piperidine-2,6-dione] | 53 to 60 | 80 to 100 | B (80%< substrate protein remaining %≤ 100%) | B (80%< substrate protein remaining %≤ 100%) | B (80%< substrate protein remaining %≤ 100%) | B (80%< substrate protein remaining %≤ 100%) | B (80%< substrate protein remaining %≤ 100%) | A (0% ≤ substrate protein remaining % ≤ 80%) |
| O=C1CCC(N2Cc3c(CN4CCN(c5cc(Cl)cc(Cl)c5)CC4)cccc3C2=S)C(=O)N1 (stereo not drawn) [GT-08629, 3-(4-((4-(3,5-dichlorophenyl)piperazin-1-yl)methyl)-1-thioxoisoindolin-2-yl)piperidine-2,6-dione] | 40 to 53 | 60 to 80 | A (0% ≤ substrate protein remaining % ≤ 80%) | B (80%< substrate protein remaining %≤ 100%) | B (80%< substrate protein remaining %≤ 100%) | B (80%< substrate protein remaining %≤ 100%) | A (0% ≤ substrate protein remaining % ≤ 80%) | B (80%< substrate protein remaining %≤ 100%) |
| O=C1CCC(N2Cc3c(CN4CCN(c5c(F)cccc5F)CC4)cccc3C2=S)C(=O)N1 (stereo not drawn) [GT-08630, 3-(4-((4-(2,6-difluorophenyl)piperazin-1-yl)methyl)-1-thioxoisoindolin-2-yl)piperidine-2,6-dione] | 53 to 60 | 60 to 80 | B (80%< substrate protein remaining %≤ 100%) | B (80%< substrate protein remaining %≤ 100%) | B (80%< substrate protein remaining %≤ 100%) | B (80%< substrate protein remaining %≤ 100%) | A (0% ≤ substrate protein remaining % ≤ 80%) | A (0% ≤ substrate protein remaining % ≤ 80%) |
| O=C1CCC(N2Cc3c(CN4CCN(c5ccc(F)c(F)c5)CC4)cccc3C2=S)C(=O)N1 (stereo not drawn) [GT-08631, 3-(4-((4-(3,4-difluorophenyl)piperazin-1-yl)methyl)-1-thioxoisoindolin-2-yl)piperidine-2,6-dione] | 60 to 80 | 80 to 100 | B (80%< substrate protein remaining %≤ 100%) | B (80%< substrate protein remaining %≤ 100%) | B (80%< substrate protein remaining %≤ 100%) | B (80%< substrate protein remaining %≤ 100%) | A (0% ≤ substrate protein remaining % ≤ 80%) | B (80%< substrate protein remaining %≤ 100%) |
| O=C1CCC(N2Cc3c(CN4CCN(c5cc(F)cc(F)c5)CC4)cccc3C2=S)C(=O)N1 (stereo not drawn) [GT-08632, 3-(4-((4-(3,5-difluorophenyl)piperazin-1-yl)methyl)-1-thioxoisoindolin-2-yl)piperidine-2,6-dione] | 60 to 80 | 80 to 100 | B (80%< substrate protein remaining %≤ 100%) | B (80%< substrate protein remaining %≤ 100%) | B (80%< substrate protein remaining %≤ 100%) | B (80%< substrate protein remaining %≤ 100%) | A (0% ≤ substrate protein remaining % ≤ 80%) | B (80%< substrate protein remaining %≤ 100%) |
